Laboratory results as given in patent US10973832B2, “Muscarinic M1 receptor agonists” (Heptares Therapeutics Limited, priority 2011, dated 2021).

What was measured:
[1] = biological target: T1, human muscarinic M1 receptor (Homo sapiens, UniProt P11229); test: Phospho-ERK1/2 assay, muscarinic M1; type: cell-based; details: for Emax: CHO, read-out: % Emax cf. ACh (M1)
T1 sequence (P11229 1-460): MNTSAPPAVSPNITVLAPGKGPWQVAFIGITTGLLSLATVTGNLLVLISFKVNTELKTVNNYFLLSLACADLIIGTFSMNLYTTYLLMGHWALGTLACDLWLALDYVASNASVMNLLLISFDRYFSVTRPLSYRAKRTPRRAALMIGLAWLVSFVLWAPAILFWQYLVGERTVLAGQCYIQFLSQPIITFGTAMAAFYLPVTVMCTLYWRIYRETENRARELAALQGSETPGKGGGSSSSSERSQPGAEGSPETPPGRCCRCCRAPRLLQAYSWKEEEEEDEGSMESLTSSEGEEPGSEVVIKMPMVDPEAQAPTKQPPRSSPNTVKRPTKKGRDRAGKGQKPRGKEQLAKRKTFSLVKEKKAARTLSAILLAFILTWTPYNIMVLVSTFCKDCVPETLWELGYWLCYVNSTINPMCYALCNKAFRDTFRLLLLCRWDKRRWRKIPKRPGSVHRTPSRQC
How it was run: (§1)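 Steps: plate CHO cells stably expressing the receptor in MEM-alpha with 10% dialysed FBS; starve overnight; add agonist for 5 min at 37 °C; lyse for 15 min; incubate the lysate with SureFire detection reagents for 2 h; read. The outputs are pEC50 and Emax.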

[2] = biological target: T2, human muscarinic M3 receptor (Homo sapiens, UniProt P20309); test: Phospho-ERK1/2 assay, muscarinic M3; type: cell-based; details: for Emax: CHO, read-out: % Emax cf. ACh (M3)
T2 construct: expressed in transfected cells
T2 sequence (P20309 whole entry): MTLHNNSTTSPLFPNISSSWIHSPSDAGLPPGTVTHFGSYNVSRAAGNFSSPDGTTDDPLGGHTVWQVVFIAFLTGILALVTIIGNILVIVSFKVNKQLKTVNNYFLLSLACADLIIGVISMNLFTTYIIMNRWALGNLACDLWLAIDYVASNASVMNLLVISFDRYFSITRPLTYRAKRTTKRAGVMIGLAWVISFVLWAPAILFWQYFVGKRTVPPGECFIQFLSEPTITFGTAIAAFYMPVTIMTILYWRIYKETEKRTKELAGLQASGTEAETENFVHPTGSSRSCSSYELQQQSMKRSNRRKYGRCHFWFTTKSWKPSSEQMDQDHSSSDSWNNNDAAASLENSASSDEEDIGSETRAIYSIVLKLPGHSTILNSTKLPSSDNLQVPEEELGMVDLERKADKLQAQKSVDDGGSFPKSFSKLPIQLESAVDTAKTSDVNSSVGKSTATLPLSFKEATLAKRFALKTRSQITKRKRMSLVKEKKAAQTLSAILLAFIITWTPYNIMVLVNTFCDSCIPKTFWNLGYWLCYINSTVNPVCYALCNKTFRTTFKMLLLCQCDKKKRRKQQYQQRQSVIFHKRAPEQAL
How it was run: as §1

[3] = tested on: scopolamine-induced amnesia; test: Passive avoidance; type: in vivo; details: for reversal of scopolamine-induced amnesia: dose range 3, 10, 30 mg/kg po, scopolamine 1 mg/kg i.p.; for significance of reversal of scopolamine-induced amnesia: p<0.05 Bonferroni post hoc test
Experimental: (§2) FIGS. 1-4 show the efficacy of the compounds of the invention. FIGS. 1-3 relate to the passive avoidance assay described in part B. Studies were carried out as described previously by Foley et al., (2004) Neuropsychopharmacology. In the passive avoidance task scopolamine administration (1 mg/kg, i.p.) at 6 hours following training rendered animals amnesic of the paradigm. A dose range of 3, 10, and 30 mg/kg (po) free base, administered 90 minutes prior to the training period via oral gavage, was examined.
as §2, with “Studies” for “FIGS. 1-4 show the efficacy of the compounds of the invention. FIGS. 1-3 relate to the passive avoidance assay described in part B. Studies”

[4] = tested on: Male Wistar rats; test: Novel object recognition; type: in vivo; details: 10 and 30 mg/kg oral gavage 90 minutes prior to training; p<0.05
Experimental: The novel object recognition paradigm is based on the greater spontaneous exploration of a novel object, compared with a familiar object, shown by rodents (Ennaceur and Delacour, 1988). […] Male Wistar rats were assessed for cognitive ability in a test apparatus comprising an open-field arena placed in a sound-attenuated room under dimmed lighting. Images of the open-field were captured by digital camera, and viewed on a monitor in an adjoining room. Each rat was subjected to the procedure separately and care taken to remove any olfactory/taste cues by cleaning the arena and test objects with alcohol between trials and rats. All tests are video scored blind to treatment. Following a 10-minute habituation period, each rat was placed into the test arena in the presence of two identical objects (plastic shapes). Each rat was placed facing the same direction at the same position in the arena, and the time spent actively exploring the objects during a 5-minute training period (T1) was recorded. The rat is returned to its home cage between tests. After 24 hours, each rat was again placed in the test arena for 5 minutes (T2) in the presence of one of the familiar objects and a novel object, and the time spent exploring both objects again recorded. The presentation order and position of the objects (left/right) was randomized between rats to prevent bias from order or place preference. Doses of 3, 10 or 30 mg/kg of test compound were administered by oral gavage 90 minutes prior to training (n=8). Donepezil (0.1 mg/kg) and galanthamine (3 mg/kg) were administered via intraperitoneal injection 60 minutes prior to training. Vehicle-treated controls were employed for comparison.

Compound	EC50 [1]	Emax [1]	EC50 [2]	Emax [2]	reversal of scopolamine-induced amnesia ([3]; 90 minutes prior to training)	ED50 ([3]; po, free base, 90 minutes prior to training, scopolamine 1 mg/kg i.p. 6 hours after training, read-out: approximate ED50, reversal of scopolamine-induced amnesia)	effect compared with donepezil (0.1 mg/kg, i.p.) positive control ([3]; 10 mg/kg, FIG. 3)	effect compared with donepezil (0.1 mg/kg, i.p.) positive control ([3]; 10 and 30 mg/kg, FIG. 2)	significance of reversal of scopolamine-induced amnesia ([3]; acute 10 mg/kg po, FIG. 3)	significance of reversal of scopolamine-induced amnesia ([3]; acute 10 and 30 mg/kg, FIG. 2)	novel object recognition memory vs vehicle-treated controls [4]
CCOC(=O)N1CCCC(N2CCC(C(=O)NC3(C)CCC3)CC2)CC1 (stereo not shown) [Example 27, ethyl 4-(4-((1-methylcyclobutyl)carbamoyl)piperidin-1-yl)azepane-1-carboxylate]	45.7 nM	117%	> 20000 nM	5%	reverse scopolamine-induced amnesia of the paradigm in a dose-dependent manner	~10 mg/kg	–	–	–	–	–
CCOC(=O)N1CCC[C@H](N2CCC(C(=O)NC3(C)CCC3)CC2)CC1 [Example 65, ethyl (4S)-4-{4-[(1-methylcyclobutyl)carbamoyl]piperidin-1-yl)azepane-1-carbondate]	31.6 nM	104%	> 20000 nM	11%	reverse scopolamine-induced amnesia of the paradigm in a dose-dependent manner	–	not significantly different to that produced by the cholinesterase inhibitor donepezil	not significantly different to that produced by the cholinesterase inhibitor donepezil	significant effects	significant effects	significantly improved novel object recognition memory
